According to ChEMBL document CHEMBL1136534, “Dihydroquinolines with amine-containing side chains as potent n-NOS inhibitors” (Bioorg Med Chem Lett, 2003):

Legend:
[1] = target: Nitric oxide synthase, inducible (Homo sapiens, UniProt P35228); test: Inhibitory concentration against human Inducible nitric oxide synthase
Nitric oxide synthase 3 = target: T1, Nitric oxide synthase 3 (Homo sapiens, UniProt P29474); test: Inhibitory concentration against recombinant human Endothelial nitric oxide synthase
T1 sequence (P29474 whole entry): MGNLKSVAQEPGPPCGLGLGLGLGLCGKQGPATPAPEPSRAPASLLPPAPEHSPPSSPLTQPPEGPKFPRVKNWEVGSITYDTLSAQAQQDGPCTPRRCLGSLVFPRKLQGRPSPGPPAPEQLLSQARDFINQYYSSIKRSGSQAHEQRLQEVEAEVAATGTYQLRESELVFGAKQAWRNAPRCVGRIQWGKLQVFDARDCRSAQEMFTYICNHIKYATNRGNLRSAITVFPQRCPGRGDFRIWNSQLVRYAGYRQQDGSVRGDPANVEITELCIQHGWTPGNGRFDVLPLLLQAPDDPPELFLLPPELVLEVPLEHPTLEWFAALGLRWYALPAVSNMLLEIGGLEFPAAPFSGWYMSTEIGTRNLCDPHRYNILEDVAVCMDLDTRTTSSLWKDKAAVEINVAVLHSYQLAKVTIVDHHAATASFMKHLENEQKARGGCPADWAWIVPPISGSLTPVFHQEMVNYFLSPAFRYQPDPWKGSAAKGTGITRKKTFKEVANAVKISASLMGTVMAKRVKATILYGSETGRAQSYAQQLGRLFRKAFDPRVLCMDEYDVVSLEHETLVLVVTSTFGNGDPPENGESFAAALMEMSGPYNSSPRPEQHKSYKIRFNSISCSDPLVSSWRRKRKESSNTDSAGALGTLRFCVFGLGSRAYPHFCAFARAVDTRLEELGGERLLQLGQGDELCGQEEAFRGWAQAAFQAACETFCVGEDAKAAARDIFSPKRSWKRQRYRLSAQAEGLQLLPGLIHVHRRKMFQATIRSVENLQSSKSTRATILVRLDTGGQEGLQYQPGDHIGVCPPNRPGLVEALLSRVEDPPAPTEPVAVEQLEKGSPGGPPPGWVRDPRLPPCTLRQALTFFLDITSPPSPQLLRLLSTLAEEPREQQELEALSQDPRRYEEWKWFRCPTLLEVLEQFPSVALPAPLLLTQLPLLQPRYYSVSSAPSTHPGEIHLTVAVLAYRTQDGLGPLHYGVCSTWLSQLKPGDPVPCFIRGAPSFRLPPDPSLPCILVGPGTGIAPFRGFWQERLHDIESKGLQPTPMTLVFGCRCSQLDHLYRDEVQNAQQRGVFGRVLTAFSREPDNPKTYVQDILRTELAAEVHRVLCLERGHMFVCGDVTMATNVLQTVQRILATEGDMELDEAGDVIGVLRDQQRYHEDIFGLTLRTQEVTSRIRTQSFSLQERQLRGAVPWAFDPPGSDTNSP

Nitric oxide synthase 1 = Nitric oxide synthase 1 (Homo sapiens, UniProt P29475); test: Inhibitory concentration against recombinant human (neuronal nitric oxide synthase) n-NOS
Nitric oxide synthase 1, sequence (P29475 whole entry): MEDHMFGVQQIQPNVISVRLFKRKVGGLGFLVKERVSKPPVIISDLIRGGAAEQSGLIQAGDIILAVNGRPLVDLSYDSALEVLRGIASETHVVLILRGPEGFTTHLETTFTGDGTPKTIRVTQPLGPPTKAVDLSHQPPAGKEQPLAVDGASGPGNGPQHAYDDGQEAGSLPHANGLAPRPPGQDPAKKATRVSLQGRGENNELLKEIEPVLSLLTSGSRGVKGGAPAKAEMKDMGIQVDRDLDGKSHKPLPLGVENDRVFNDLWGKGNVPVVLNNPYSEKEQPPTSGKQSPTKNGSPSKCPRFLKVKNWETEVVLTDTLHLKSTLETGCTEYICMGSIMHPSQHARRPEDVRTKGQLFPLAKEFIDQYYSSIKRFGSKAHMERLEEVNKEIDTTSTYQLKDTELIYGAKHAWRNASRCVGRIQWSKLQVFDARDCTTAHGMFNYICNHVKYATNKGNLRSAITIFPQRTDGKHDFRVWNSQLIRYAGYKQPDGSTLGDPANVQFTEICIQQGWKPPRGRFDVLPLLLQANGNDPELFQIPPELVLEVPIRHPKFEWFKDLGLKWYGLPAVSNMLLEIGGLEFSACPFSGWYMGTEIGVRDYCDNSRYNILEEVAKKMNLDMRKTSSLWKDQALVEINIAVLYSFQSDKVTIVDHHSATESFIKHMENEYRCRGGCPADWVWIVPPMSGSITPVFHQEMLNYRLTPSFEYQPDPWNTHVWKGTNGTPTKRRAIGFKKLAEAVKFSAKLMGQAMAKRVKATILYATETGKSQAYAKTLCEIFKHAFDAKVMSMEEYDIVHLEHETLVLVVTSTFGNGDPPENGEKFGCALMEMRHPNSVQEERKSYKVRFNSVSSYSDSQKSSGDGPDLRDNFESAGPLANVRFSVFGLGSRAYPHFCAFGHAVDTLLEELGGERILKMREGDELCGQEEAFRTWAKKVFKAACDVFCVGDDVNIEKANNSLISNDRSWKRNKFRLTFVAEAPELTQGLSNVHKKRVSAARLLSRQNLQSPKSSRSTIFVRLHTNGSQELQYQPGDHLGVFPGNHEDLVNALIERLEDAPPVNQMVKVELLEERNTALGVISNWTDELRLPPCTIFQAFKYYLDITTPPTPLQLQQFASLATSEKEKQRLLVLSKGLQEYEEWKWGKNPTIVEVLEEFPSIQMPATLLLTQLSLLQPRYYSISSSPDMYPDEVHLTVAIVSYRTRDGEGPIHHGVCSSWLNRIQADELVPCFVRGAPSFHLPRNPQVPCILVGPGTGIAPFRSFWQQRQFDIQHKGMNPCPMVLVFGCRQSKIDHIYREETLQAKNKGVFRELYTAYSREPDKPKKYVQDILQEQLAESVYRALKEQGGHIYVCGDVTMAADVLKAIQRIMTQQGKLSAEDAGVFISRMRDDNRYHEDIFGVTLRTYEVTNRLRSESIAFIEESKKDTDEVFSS

Nitric oxide synthase, inducible, sequence (P35228 whole entry): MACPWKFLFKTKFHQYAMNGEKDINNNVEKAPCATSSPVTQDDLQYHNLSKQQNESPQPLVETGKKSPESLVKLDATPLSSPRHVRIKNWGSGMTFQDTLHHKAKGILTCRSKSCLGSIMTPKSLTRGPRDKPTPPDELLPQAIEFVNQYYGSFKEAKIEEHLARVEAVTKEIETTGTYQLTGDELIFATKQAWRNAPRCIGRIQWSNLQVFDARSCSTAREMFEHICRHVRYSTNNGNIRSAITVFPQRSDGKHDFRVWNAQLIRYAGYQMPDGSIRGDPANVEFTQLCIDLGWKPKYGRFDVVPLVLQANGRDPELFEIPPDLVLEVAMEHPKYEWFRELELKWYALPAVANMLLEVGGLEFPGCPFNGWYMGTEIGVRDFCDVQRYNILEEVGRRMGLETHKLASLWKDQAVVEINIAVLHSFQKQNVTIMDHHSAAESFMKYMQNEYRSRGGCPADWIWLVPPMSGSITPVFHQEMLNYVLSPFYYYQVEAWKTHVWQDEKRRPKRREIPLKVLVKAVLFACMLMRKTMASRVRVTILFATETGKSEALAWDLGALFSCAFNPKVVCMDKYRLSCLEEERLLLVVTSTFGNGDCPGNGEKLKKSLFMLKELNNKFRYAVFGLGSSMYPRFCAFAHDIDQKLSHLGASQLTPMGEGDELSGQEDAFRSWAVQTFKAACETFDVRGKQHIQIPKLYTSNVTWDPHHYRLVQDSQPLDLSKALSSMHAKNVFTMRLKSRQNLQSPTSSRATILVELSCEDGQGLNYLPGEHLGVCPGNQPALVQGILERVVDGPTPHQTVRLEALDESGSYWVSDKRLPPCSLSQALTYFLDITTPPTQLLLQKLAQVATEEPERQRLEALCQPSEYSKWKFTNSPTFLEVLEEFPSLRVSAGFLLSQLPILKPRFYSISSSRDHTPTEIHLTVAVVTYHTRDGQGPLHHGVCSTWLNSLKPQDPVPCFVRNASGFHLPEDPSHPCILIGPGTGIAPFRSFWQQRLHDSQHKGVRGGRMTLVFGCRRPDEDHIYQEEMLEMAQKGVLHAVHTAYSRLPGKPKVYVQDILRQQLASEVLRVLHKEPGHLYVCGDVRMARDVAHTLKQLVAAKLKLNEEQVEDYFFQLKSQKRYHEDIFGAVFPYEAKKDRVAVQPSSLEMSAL

| Compound | IC50 [1] [nM] | IC50 (Nitric oxide synthase 3) [µM] | IC50 (Nitric oxide synthase 1) [nM] |
| --- | --- | --- | --- |
| CNCCOc1ccc2c(c1)N=C(N)[C@@H]1CCC[C@H]21 | 3900 | 52 | 170 |
| NC1=Nc2cc(CCCNCc3cccc(Cl)c3)ccc2[C@H]2CCC[C@@H]12 | 580 | 9.4 | 42 |
| N=C(Nc1ccc(CCNCc2cccc(Cl)c2)cc1)c1cccs1 | – | 3.5 | 35 |

Next, values leading:

| IC50 [1] [nM] | IC50 (Nitric oxide synthase 3) [µM] | IC50 (Nitric oxide synthase 1) [nM] | Compound |
| --- | --- | --- | --- |
| 1600 | 8.7 | 170 | NC1=Nc2cc(CCNCc3cccc(Cl)c3)c(Cl)cc2[C@H]2CCC[C@@H]12 |
| 950 | 9.6 | 140 | NC1=Nc2cc(CNCc3cccc(Cl)c3)ccc2[C@H]2CCC[C@@H]12 |
| 530 | 6.7 | 48 | NC1=Nc2cc(CCNCc3cccc(Cl)c3)ccc2[C@H]2CCC[C@@H]12 |
